In patent US20050171005A1, “Methods and compositions for modulating beta-catenin phosphorylation” (priority 2002, published 2005):

What was measured:
β-catenin [1] = type: cell-based, human; conditions: 293 cells
Description: (§1) 293T cells were transiently transfected using the calcium phosphate procedure. The following expression vectors were used: Myc- or Flag-tagged β-catenin (0.5 μg) (a human β-catenin clone obtained from R. Grosschedl), Flag- or Myc-tagged axin (2 μg) (mouse cDNA provided by F. Costantini), HA-GSK3β or Flag-GSK3β (3.5 μg) (a rabbit clone obtained from J R Woodgett) [Woodgett, J. R. (1990) EMBO J 9: 2431-2438]. β-catenin mutants include DP, (S33, S37, T40, S45, S47 substituted to alanine) single point mutants (S29F, S33Y, S37A, T41A, S45F) and 45PKA (T41S, T42R, A43R). Additional vectors: Flag-WD, a dominant negative β-TrCP fragment (ΔF-box) [Yaron, A. et al. (1998) Nature 396: 590-594]; Flag-Dvl-1 (a mouse cDNA clone obtained from S-I Yanagawa) [Lee, J. S. et al. (1999) J Biol Chem 274: 21464-21470]; WT and dominant negative Xenopus CKIε (XCKIε-D128N) (provided by T. Shcwarz-Romond) [McKay, R. M. et al. (2001) Dev Biol 235: 378-387]. 24-48 hr after transfection, cells were harvested and processed for the various experiments. MG-132 (Sigma) was used at 20 μM for 5 hr; LiCl (40 mM) was added for 6 hr, and CKI-7 (100 μM) for 16 hr prior to harvesting. β-catenin, axin or GSK-30 in cell lysates were detected using anti-Myc (Ab-1, Oncogenes Research Products, 2 μg/ml), anti-Flag (M2, Sigma, 1 μg/ml) and anti-HA (12CA5 ascites fluid; 1:5000) antibodies, respectively. GFP expression was monitored with anti-GFP antibody (JL-8, Clontech, 1 μg/ml). In some experiments (FIG. 4) GSK-3β was detected using anti-GSK-3β monoclonal antibodies (clone 7, Transduction Laboratories, 0.1 μg/ml). Endogenous and exogenous β-catenin (FIGS. 5d and 6a) were detected with anti-β-catenin antibodies (clone 14, Transduction Laboratories) (0.25 μg/ml).
Western blot and mass spectrometry (MS). Three different commercial anti-β-catenin phospho-peptide antibodies were used: i) Anti-phospho-Thr41/Ser 45 (Cell Signaling Technology), a polyclonal antibody specific for both pT41 and pS45 (otp41,45). ii) Anti-phospho-Ser33/37/Thr41 (Cell Signaling Technology), a polyclonal antibody recognizing pS33 (αp33). These two polyclonal antibodies were used at a 1:1000 dilution, according to the manufacturer's instructions. iii) anti-phospho-Ser 33/37 (BC-22, Sigma), a monoclonal antibody specific for pS37 (used as ascites fluid at a 1:3000 dilution; αp37). Antibody specificities were determined by phosphopeptide inhibition studies. D^32S(PO4)GIHSGATTTAPS^45 abolished the αp33, but not the αp37 signal; D^32SGIHS(PO4)GATTTAPS^45 blocked the αp37 but not the αp33 signal. […] Proteins for MS analysis were immunopurified by M2 Flag-affinity beads (Sigma), separated by SDS-PAGE, Coomassie stained and the β-catenin bands were in-gel digested with endoproteinase Asp-N. The resulting peptides were desalted on small columns, eluted with 20% MeOH, 5% HCOOH, and analyzed by nanoelectrospray mass spectrometry [Yaron et al. (1998) id ibid.], using a quadrupole time-of-flight mass spectrometer (PE-Sciex, Canada).
GSK-3β is traditionally known to target the phosphorylation of +4P-primed substrates [Frame, S. et al. (2001) Mol Cell 7: 1321-1327], a specificity supported by recent structural studies of the enzyme [Dajani, R. et al (2001) Cell 105: 721-732]. The fact that the S45 phosphorylation site is not preceded by a +4P priming site led to the proposition that the molecular complex of axin and GSK-3β is capable of bypassing the priming requirement of the uncomplexed enzyme [Cohen and Frame (2001) id ibid.]. To assess the contribution of GSK-30 in axin-mediated S45 phosphorylation, two types of experiments were carried out. In the first set, 293 cells were incubated prior to harvesting with LiCl, a GSK-3β inhibitor capable of mimicking a Wnt effect [Klein, P. S. and D. A. Melton (1996) Proc Natl Acad Sci USA 93: 8455-8459; Stambolic, V. et al. (1996) Curr Biol 6: 1664-1668].

MITF-M promoter = test: pGL3-MITF/M luciferase reporter assay in LB33B1 melanoma cells; type: cell-based; conditions: reporter-transfected B1 (LB33B1) cells; 20 mM LiCl for 24 hours
Description: FIG. 10c: MITF transcriptional activity requires β-catenin phosphorylation. The two related melanoma cell lines LB33A1 and LB33B1 were transfected with the pGL3-MITF/M luciferase reporter plasmid [Takeda et al. (2000) J Biol Chem 275: 14013-6] alone or together with DvlΔPDZ expression plasmid. 24 hours after transfection, one sample of cells was treated with 20 mM LiCl for 24 hours, as indicated. Cells were harvested and their lysate luciferase activity was determined using Promega's Luciferase Assay System. MITF-M transcriptional activity is expressed in Relative Luciferase Units (RLU). A TCF mutant-site reporter (pGL3-MITF/M195.3) was used to control TCF-independent transcription.
Cells were transfected with the TOPFLASH or pGL3-MITF/M luciferase reporter plasmids [Korinek et al., (1997) Science, 275: 1752-3; Takeda et al. (2000) J. Biol. Chem. 275: 14013-6] and the relevant expression plasmid combinations. 24 hours after transfection the cells were harvested. Luciferase activity was determined in the cells' lysate using Promega's Luciferase Assay System. The transcription activity is expressed in Relative Luciferase Units (RLU). TCF mutant-site reporters (FOPFLASH and pGL3-MITF/M195.3) were used to control TCF-independent transcriptional transactivation. […]

endogenous β-catenin = test: Phosphorylation of endogenous β-catenin in proteasome-inhibited HeLa cells with kinase inhibitors; type: cell-based; conditions: CKI-7 100 μM; for S33 phosphorylation of endogenous β-catenin: LiCl 40 mM
Description: FIG. 5d: Effects of specific kinase inhibitors on the phosphorylation of endogenous β-catenin at S41,45 and S33 in HeLa cells. CKI-7 was used at 100 μM, H89 at 5 μM and LiCl at 40 mM. β-catenin was detected with anti-β-catenin antibody, or anti-phospho-p-catenin antibodies.
as §1
Western blot and mass spectrometry (MS). Three different commercial anti-β-catenin phospho-peptide antibodies were used: i) Anti-phospho-Thr41/Ser 45 (Cell Signaling Technology), a polyclonal antibody specific for both pT41 and pS45 (otp41,45). ii) Anti-phospho-Ser33/37/Thr41 (Cell Signaling Technology), a polyclonal antibody recognizing pS33 (αp33). […] Antibody specificities were determined by phosphopeptide inhibition studies. […]
In another set of experiments the in vivo role of CKI in S45 phosphorylation was analyzed, using two dominant negative CKIε constructs (dnXCKIε K85R and D128N) [McKay et al. (2001) id ibid.] and a specific CKI inhibitor (CKI-7) [Chijiwa, T. et al. (1989) J Biol Chem 264: 4924-4927]. […]

β-catenin [2] = test: β-catenin phosphorylation in B1 melanoma cells; type: cell-based; conditions: data not shown
Description: (§2) The highly metastatic melanoma cell line LB33B1 (B1) is a derivative of the low grade malignant LB33A1 (A1) cells [Ikeda H. et al., (1997) Immunity 6(2): 199-208]. Both cell lines harbor a similar high content of β-catenin, irrespective of proteasome inhibition, yet the B1 β-catenin is phosphorylated (FIG. 10b). […] To assess the contribution of phosphorylated versus non-phosphorylated β-catenin to the MITF-transcriptional activity, reporter-transfected B1 cells were treated with LiCl, which suppresses GSK3 phosphorylation, or cotrasfected with Dvl-ΔPDZ, which cannot cooperate with Frat1, yet suppresses S45 phosphorylation. […] Abrogating β-catenin phosphorylation in melanoma cells may compromise their growth and indeed, treatment of B1 melanoma cells with CKI7, a small-molecule specific CKI inhibitor, slowed their proliferation (FIG. 10d) along with suppressing the phosphorylation of β-catenin (data not shown).

LB33B1 cells = test: LB33B1 melanoma cell growth, live cell count 24 hours post treatment; type: cell-based; conditions: increasing concentrations of CKI7, live cells counted 24 hours post treatment
Description: FIG. 10d: Blocking β-catenin phosphorylation in a melanoma cell line affects cell growth. LB33B1 cells were treated with increasing concentrations of the S45 phosphorylation inhibitor CKI7 and live cells were counted 24 hours post treatment. • Abbreviations: U.T., untreated or untransfected; Rel. ce. numb. 24 hrs. po. treat., relative cell numbers 24 hours post-treatment.
as §2

[3] = MG-132 treated, LiCl 40 mM for 6 hr

## [Cl-].[Li+] [LiCl]
β-catenin [1]; MG-132 treated, LiCl 40 mM
  S45 phosphorylation of T41A mutated β-catenin: no effect
β-catenin [1]; [3]
  axin-induced S33/37 phosphorylation of wt β-catenin: abolished
  axin-induced T41/S45 phosphorylation signal of wt β-catenin: minimally affected
β-catenin [1]; data not shown
  MS analysis of S45 peptides, treated versus non-treated cells: no difference
MITF-M promoter
  MITF promoter activity: inhibition
Endogenous β-catenin
  S33 phosphorylation of endogenous β-catenin: exclusively blocked

## NCCNS(=O)(=O)c1ccc(Cl)c2ccncc12 [CKI-7]
β-catenin [2]
  phosphorylation of β-catenin: suppressing
β-catenin [1]; CKI-7 100 μM for 16 hr
  axin-induced p45 signal of wt β-catenin: diminished
β-catenin [1]; CKI-7 100 μM for 16 hr, H89 data not shown
  constitutive S45 phosphorylation of 45PKA β-catenin: did not affect
Endogenous β-catenin
  S45/T41 phosphorylation of endogenous β-catenin: suppressed
  S33 phosphorylation of endogenous β-catenin: suppressed
LB33B1 cells
  proliferation of B1 melanoma cells: slowed
